Earlier results, collected in US20220054538A1, “ANTI-HELICOBACTER AGENT AND METHOD FOR THE USE THEREOF” (priority 2018, published 2022).

Test system: Helicobacter pylori culture
Conditions: in vitro

Q: With calcium pectate as the substance, how does the “effect on Helicobacter pylori culture” value read?
A: The value was “significant effect”.
